Test results from ChEMBL document CHEMBL1142400, “An updated steroid benchmark set and its application in the discovery of novel nanomolar ligands of sex hormone-binding globulin” (J Med Chem, 2008).
pKd: −log10 of the molar value.

The compounds below were run against T1, Sex hormone-binding globulin (Homo sapiens, UniProt P04278) (assay: Displacement of [3H]5alpha dihydrotestosterone from human sex hormone binding globulin).
T1 sequence (P04278 whole entry): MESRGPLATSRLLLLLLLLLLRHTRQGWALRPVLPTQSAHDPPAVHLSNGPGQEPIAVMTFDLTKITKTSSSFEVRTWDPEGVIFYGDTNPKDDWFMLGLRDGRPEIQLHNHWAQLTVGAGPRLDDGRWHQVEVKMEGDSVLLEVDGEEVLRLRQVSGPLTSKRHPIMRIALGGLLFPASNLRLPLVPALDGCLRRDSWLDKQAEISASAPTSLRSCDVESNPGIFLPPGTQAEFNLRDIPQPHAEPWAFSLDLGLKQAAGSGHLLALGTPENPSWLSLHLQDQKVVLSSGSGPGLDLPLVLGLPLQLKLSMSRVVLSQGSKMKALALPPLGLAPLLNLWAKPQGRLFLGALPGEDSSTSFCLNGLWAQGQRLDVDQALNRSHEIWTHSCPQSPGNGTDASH

| Structure (SMILES) | pKd |
| --- | --- |
| C[C@@H]1CC2=CC(=O)C=C[C@]2(C)[C@H]2CC[C@@]3(C)[C@@H](CC[C@]3(C)O)[C@H]12 | 8.57 |
| C[C@]12CC[C@@H](O)C[C@H]1CC[C@@H]1[C@@H]2CC[C@]2(C)C(=O)CC[C@@H]12 [ETIOCHOLANOLONE] | 6.15 |
| C[C@]12CCC(=O)C=C1CC[C@@H]1[C@@H]2CC[C@@]2(C)[C@H]1CC[C@]2(O)C(=O)CO [CORTODOXONE] | 7.44 |
| C[C@]1(O)CC[C@H]2[C@@H]3CCC4=CC(=O)CC[C@]4(C)[C@@]3(F)C(=O)C[C@@]21C | 8.23 |
| COc1cc(C(=O)OC2CC3CCC2(C)C3(C)I)ccc1O (stereo not drawn) | 6.39 |
| COc1cc2c(cc1O)CC[C@@H]1[C@@H]2CC[C@]2(C)[C@@H](O)CC[C@@H]12 [2-METHOXYESTRADIOL] | 9.08 |
| CC1(O)CC[C@H]2[C@@H]3CC=C4CC(O)CC[C@]4(C)[C@H]3CC[C@@]21C (stereo partly drawn) | 8.36 |
| C[C@@H]1CC2=CC(=O)CC[C@]2(C)[C@@]2(F)CC[C@]3(C)[C@@H](O)CC[C@H]3[C@H]12 | 8.51 |
| Cc1c(Cc2ccccc2)c(=O)oc2c(C)c(O)ccc12 | 5.66 |
| COc1cc(/C=N/CCc2ccccc2)ccc1O | 6.23 |
| C[C@]12CC[C@H]3C(=CCc4cc(O)ccc43)[C@@H]1CC[C@@H]2O | 8.62 |
| C[C@]12CC[C@H]3[C@@H](CCC4=CC(=O)CC[C@@]43C)[C@@H]1CC[C@@H]2O [TESTOSTERONE] | 9.20 |
| C#C[C@]1(O)CC[C@H]2[C@@H]3CCC4=CC(=O)CC[C@]4(C)[C@H]3CC[C@@]21C [ETHISTERONE] | 8.78 |
| CC(=O)[C@H]1CC[C@H]2[C@@H]3CC=C4C[C@@H](O)CC[C@]4(C)[C@H]3CC[C@]12C [PREGNENOLONE] | 7.15 |
| CC(=O)[C@@]1(O)CC[C@H]2[C@@H]3CC=C4C[C@@H](O)CC[C@]4(C)[C@H]3CC[C@@]21C | 6.36 |
| C[C@]12CC[C@@H](O)C[C@@H]1CC[C@@H]1[C@@H]2CC[C@]2(C)[C@@H](O)CC[C@@H]12 [ANDROSTANDIOL] | 9.11 |
| C[C@]12CCC(=O)C[C@@H]1CC[C@@H]1[C@@H]2CC[C@]2(C)[C@@H](O)CC[C@@H]12 [STANOLONE] | 9.74 |
| C[C@]12CC[C@@H]3c4ccc(O)cc4CC[C@H]3[C@@H]1CCC2=O [ESTRONE] | 8.18 |
| C[C@@H]1CC2=CC(=O)CC[C@]2(C)[C@H]2CC[C@@]3(C)[C@@H](CC[C@]3(C)O)[C@H]12 [BOLASTERONE] | 8.76 |
| C#C[C@]1(O)CC[C@H]2[C@@H]3CCC4=CC(=O)CC[C@@H]4[C@H]3CC[C@@]21C [NORETHINDRONE] | 7.97 |
| C[C@@H]1C[C@H]2CC(=O)CC[C@]2(C)[C@H]2CC[C@@]3(C)[C@@H](CC[C@]3(C)O)[C@H]12 | 9.05 |
| CC(=O)[C@@]1(O)CC[C@H]2[C@@H]3CCC4=CC(=O)CC[C@]4(C)[C@H]3CC[C@@]21C [HYDROXYPROGESTERONE] | 7.00 |
| C#C[C@]1(O)CC[C@H]2[C@@H]3CC[C@H]4CC(=O)CC[C@@H]4[C@H]3C(=C)C[C@@]21CC | 8.80 |
| C[C@]12CC[C@H]3[C@@H](CCC4=CC(=O)CC[C@@]43C)[C@@H]1C[C@@H](O)[C@@H]2O | 7.92 |
| O=C1C[C@@H](c2ccc(O)cc2)Oc2cc(O)cc(O)c21 (stereo in doubt; 82) [NARINGENIN] | 4.55 |

| Structure (SMILES) | pKd |
| --- | --- |
| C[C@]12CCC(=O)C[C@@H]1CC[C@@H]1[C@@H]2[C@@H](O)C[C@@]2(C)[C@H]1CC[C@@]2(O)CCCN | 4.96 |
| C[C@H]1CC(=O)C[C@@H]2CC[C@H]3[C@@H]4CC[C@H](O)[C@@]4(C)CC[C@@H]3[C@]21C [MESTEROLONE] | 9.60 |
| C[C@]12CC[C@@H]3c4ccc(O)cc4CC[C@H]3[C@@H]1C[C@@H](O)[C@@H]2O [ESTRIOL] | 6.63 |
| CC(=O)[C@H]1CC[C@H]2[C@@H]3CCC4=CC(=O)CC[C@]4(C)[C@H]3CC[C@]12C [PROGESTERONE] | 6.94 |
| C[C@]12C[C@H](O)[C@H]3[C@@H](CCC4=CC(=O)CC[C@@]43C)[C@@H]1CC[C@@H]2C(=O)CO [CORTICOSTERONE] | 6.34 |
| CC1=C2CC[C@H]3[C@@H]4CC[C@H](O)[C@@]4(C)CC[C@@H]3[C@@]2(C)CCC1=O | 9.31 |
| C[C@@H]1C[C@H]2C[C@@H](O)CC[C@]2(C)[C@H]2CC[C@@]3(C)[C@@H](CC[C@]3(C)O)[C@H]12 | 8.46 |
| C[C@]12CC[C@H]3[C@@H](CCC4=CC(=O)CC[C@@H]43)[C@@H]1CC[C@@H]2O [NANDROLONE] | 6.30 |
| C#C[C@]1(O)CC[C@H]2[C@@H]3CCC4=C[C@@H](O)CC[C@]4(C)C3C(=C)C[C@@]21CC (stereo partly drawn) | 7.88 |
| C[C@@H]1CC2CC(=O)CC[C@@H]2[C@H]2CC[C@]3(C)[C@@H](O)CC[C@H]3[C@@H]21 (stereo partly drawn) | 8.46 |
| COc1cc(C[C@H]2COC(=O)[C@@H]2Cc2ccc(O)c(OC)c2)ccc1O [MATAIRESINOL] | 6.51 |
| C[C@]12CCC(=O)C=C1CC[C@@H]1[C@@H]2CC[C@@]2(C)[C@H]1CC[C@]2(C)O [METHYLTESTOSTERONE] | 8.43 |
| CCc1cc(C(=O)Cc2ccccc2C)c(O)cc1O | 6.97 |
| C[C@]12CCC(=O)C=C1CC[C@@H]1[C@@H]2CC[C@]2(C)C(=O)CC[C@@H]12 [ANDROSTENEDIONE] | 7.46 |
| C[C@]12CCC(=O)C=C1CC[C@@H]1[C@@H]2[C@@H](O)C[C@]2(C=O)[C@@H](C(=O)CO)CC[C@@H]12 [ALDOSTERONE] | 5.32 |
| C[C@]12CC[C@@H]3c4ccc(OC(=O)c5ccccc5)cc4CC[C@H]3[C@@H]1CC[C@@H]2O [ESTRADIOL BENZOATE] | 5.94 |
| C#C[C@]1(O)CC[C@H]2[C@@H]3CC[C@H]4CC(=O)CC[C@]4(C)[C@H]3CC[C@@]21C | 9.74 |
| C#C[C@]1(O)CC[C@H]2[C@@H]3CCC4=Cc5oncc5C[C@]4(C)[C@H]3CC[C@@]21C [DANAZOL] | 8.20 |
| C#C[C@]1(O)CC[C@H]2[C@@H]3CCC4=CC(=O)CCC4=C3C=C[C@@]21CC [GESTRINONE] | 8.11 |
| C[C@]12CCC3=C4CCC(=O)C=C4C=C[C@H]3[C@@H]1CC[C@@H]2O | 5.94 |
| C#C[C@]1(O)CC[C@H]2[C@@H]3CCC4=CC(=O)CC[C@@H]4[C@H]3C(=C)C[C@@]21CC [ETONOGESTREL] | 8.23 |
| C[C@]12CC[C@@H](O)C[C@@H]1CC[C@@H]1[C@@H]2CC[C@]2(C)C(=O)CC[C@@H]12 [ANDROSTERONE] | 7.15 |
| C[C@]12CC[C@H]3[C@@H](CCC4CC(=O)CC[C@@H]43)[C@@H]1CC[C@@H]2O (stereo partly drawn) | 8.36 |
| C[C@]12CCC(=O)C=C1CC[C@@H]1[C@@H]2[C@@H](O)C[C@@]2(C)[C@H]1CC[C@]2(O)C(=O)CO [HYDROCORTISONE] | 6.20 |
| CCCCCCCCCc1ccc(O)cc1 [4-NONYLPHENOL] | 5.92 |

| Structure (SMILES) | pKd |
| --- | --- |
| C#C[C@]1(O)CC[C@H]2[C@@H]3CCc4cc(O)ccc4[C@H]3CC[C@@]21C [ETHINYL ESTRADIOL] | 6.81 |
| CC1(C)CC2=C3C=C[C@@]4(C)[C@@H](CC[C@]4(C)O)[C@@H]3CCC2=CC1=O | 6.86 |
| C[C@]12CCC(=O)C=C1CC[C@@H]1[C@@H]2C(=O)C[C@@]2(C)[C@H]1CC[C@]2(O)C(=O)CO [CORTISONE] | 6.43 |
| C[C@]12CCc3c(ccc4cc(O)ccc34)[C@@H]1CCC2=O [EQUILENIN] | 8.62 |
| C#C[C@]1(O)CC[C@H]2[C@@H]3CCC4=CCCC[C@@H]4[C@H]3C(=C)C[C@@]21CC [DESOGESTREL] | 6.60 |
| C#C[C@]1(O)CC[C@H]2[C@H]3[C@H](C(=C)C[C@@]21CC)[C@H]1CC[C@@H](O)C[C@@H]1C[C@H]3C | 8.27 |
| C[C@]12CC[C@@H]3c4cc(I)c(O)cc4CC[C@H]3[C@@H]1CC[C@@H]2O | 9.32 |
| C[C@@H]1CC2=CC(=O)CC[C@]2(C)[C@H]2CC[C@]3(C)[C@@H](O)CC[C@H]3[C@H]12 | 8.71 |
| O=C1C[C@@H](c2ccc(O)cc2)Oc2cc(O)cc(O)c21 (stereo in doubt; 90) [NARINGENIN] | 6.02 |
| CC[C@H](C1CCC(O)CC1)[C@@H](CC)C1CCC(O)CC1 (stereo partly drawn) | 4.54 |
| Oc1ccc(-c2cc3ccc(O)cc3o2)cc1 | 6.08 |
| C[C@]12CC[C@H]3[C@@H](CCC4=CC(=O)CC[C@@]43C)[C@@H]1CC[C@@H]2C(=O)CO [DESOXYCORTICOSTERONE] | 7.38 |
| C[C@@H]1C=C2CC(O)CC[C@]2(C)[C@H]2CC[C@@]3(C)[C@@H](CC[C@]3(C)O)[C@H]12 (stereo partly drawn) | 6.44 |
| C[C@@H]1CC2=CC(=O)C=C[C@]2(C)[C@H]2CC[C@]3(C)[C@@H](O)CC[C@H]3[C@H]12 | 8.36 |
| C[C@]12CCC(=O)C[C@@H]1[C@@H](F)C[C@@H]1[C@@H]2CC[C@]2(C)[C@@H](O)CC[C@@H]12 | 9.05 |
| Cc1c(O)ccc(C(=O)Cc2ccccc2Cl)c1O | 5.66 |
| C#C[C@]1(O)CC[C@H]2[C@@H]3CC=C4C[C@@H](O)CC[C@]4(C)[C@H]3CC[C@@]21C | 8.91 |
| C[C@H]1C[C@H]2[C@@H]3CC[C@H](O)[C@@]3(C)CC[C@@H]2[C@@]2(C)CCC(=O)C=C12 | 8.36 |
| C[C@]12CCC(=O)C[C@@H]1CC[C@@H]1[C@@H]2CC[C@@]2(C)[C@H]1CC[C@]2(C)O [MESTANOLONE] | 8.81 |
| C[C@]12CC[C@H]3[C@@H](CC=C4C[C@@H](O)CC[C@@H]43)[C@@H]1CC[C@@H]2O | 9.54 |
| C#C[C@]1(O)CC[C@H]2[C@@H]3[C@H](C)C=C4CC(O)CC[C@]4(C)[C@H]3CC[C@@]21C (stereo partly drawn) | 6.44 |
| O=c1c(-c2ccc(O)cc2)coc2cc(O)cc(O)c12 [GENISTEIN] | 4.40 |
| C#C[C@]1(O)CC[C@H]2[C@@H]3CC[C@H]4CC(F)(F)CC[C@]4(C)[C@H]3CC[C@@]21C | 8.36 |
